Source: US20230150924A1, “NOVEL COMPOUND HAVING CANCER METASTASIS INHIBITORY ACTIVITY, PREPARATION METHOD THEREFOR, AND PHARMACEUTICAL COMPOSITION FOR INHIBITING CANCER METASTASIS AND INVASION OR TREATING COLORECTAL CANCER, COMPRISING COMPOUND” (CELLGENTEK CO., LTD., priority 2019, published 2023)

Columns and labels:
KAI1 promoter = KAI1 promoter luciferase reporter assay in transfected Caco2 cells; assay type: cell-based, human; conditions: Homo sapiens, Caco-2, 16 h, 1 μM compound, 16 hours, transfected Caco2 cells, luciferase activity relative to DMSO control (=1); read-out: Relative KAI promoter activity
Protocol: Experiments were conducted to evaluate the metastasis-related promoter activity-increasing effects of the compounds according to the present invention. Specifically, the KAI1 promoter reporter vector was used. In this case, the pRL-TK vector, a vector expressing renilla luciferase, was used as an internal control indicating the transfection efficiency in each transfected well.
First, 24 hours before transfection, 2×10^6 human colon cancer cell line, Caco2) cells were cultured in 10 ml of DMEM containing 10% FBS and 1% penicillin/streptomycin on a 100-mm-diameter plate, and then transformed with 5 μg of a pRL-TK vector mixture containing a transfection reagent and the KAI1 promoter, and then cultured in a 5% CO2 incubator at 37° C. for 48 hours. Thereafter, the adherent cells were detached using trypsin and counted using a hemacytometer, and then 5×10^3 transfected Caco2 cells in 100 μl of DMEM containing 10% FBS and 1% penicillin/streptomycin were seeded into each well of a 96-well plate and cultured in a 5% CO2 incubator at 37° C. for 24 hours. Next, 1 μM of each of the 305 compounds prepared in Examples 1 to 305 was added to each well, and after 16 hours, 100 μl of a lysis buffer for analysis containing a luciferase substrate was added, and the cells were lysed with stirring for 20 minutes. After completion of lysis, the cells were measured for luciferase activity using a luciferase reporter assay system (Promega, USA). […] In addition, data were analyzed at a significance level of p<0.05 by one-way ANOVA (Tukey's HSD), and SPSS 17.0 (Chicago, USA) statistical program was used. In Table 14 to 20, PHA is the PHA-665752, and KIT is KITENIN.

[1] = tested on: invasion of colorectal cancer cells; test: In vivo relative invation (invasion; EV and KITENIN controls, no method described); conditions: relative to EV (=1); KIT = KITENIN

SMILES | fold induction at 1 µM (KAI1 promoter) | In vivo relative invation [1]
O=C(CNC(=O)c1ccccc1OC1CCN(S(=O)(=O)Cc2ccccc2)CC1)c1ccccc1 [Example 188, 2-((1-(benzylsulfonyl)piperidin-4-yl)oxy)-N-(2-oxo-2-phenylethyl)benzamide] | 0.92 | 1.123
CCCN(CCC)Cc1cccc(C(=O)NCC(=O)c2ccccc2)c1 [Example 248, 3-((dipropylamino)methyl)-N-(2-oxo-2-phenylethyl)benzamide] | 1.3 | 1.116
O=C(CNC(=O)c1cccc(CN2CCC(N3CCCCC3)CC2)c1)c1ccccc1 [Example 237, 3-([1,4′-bipiperidin]-1′-ylmethyl)-N-(2-oxo-2-phenylethyl)benzamide] | 1.56 | 1.114
O=C(CNC(=O)c1ccccc1CN1CCN(c2ncccn2)CC1)c1ccccc1 [Example 300, N-(2-oxo-2-phenylethyl)-2-((4-(pyrimidin-2-yl)piperazin-1-yl)methyl)benzamide] | 1.91 | 0.9869
CC(Oc1ccccc1)C(=O)NCC(=O)c1cccnc1 (centres unmarked) [Example 131, N-(2-oxo-2-(pyridin-3-yl)ethyl)-2-phenoxypropanamide] | 1.19 | 1.293
O=C(CNC(=O)c1ccccc1OC1CCN(C(=O)C2CCC2)CC1)c1ccccc1 [Example 167, 2-((1-(cyclobutanecarbonyl)piperidin-4-yl)oxy)-N-(2-oxo-2-phenylethyl)benzamide] | 1.04 | 1.159
CS(=O)(=O)NCC(=O)c1ccccc1 [Example 25, N-(2-oxo-2-phenylethyl)methanesulfonamide] | 1.49 | 1.215
O=C(CNC(=O)c1ccccc1CN1CCOCC1)c1ccccc1 [Example 304, 2-(morpholinomethyl)-N-(2-oxo-2-phenylethyl)benzamide] | 1.24 | 1.193
C=CC(=O)NCC(=O)c1ccc(N(C)C)cc1 [Example 95, N-(2-(4-(dimethylamino)phenyl)-2-oxoethyl)acrylamide] | 1.21 | 1.16
COc1cccc(C(=O)CNC(=O)c2cccc(CC3CCN(c4ccccc4F)CC3)c2)c1 [Example 281, 3-((1-(2-fluorophenyl)piperidin-4-yl)methyl)-N-(2-(3-methoxyphenyl)-2-oxoethyl)benzamide] | 1.52 | 1.236
C=CC(=O)N1CCC(Oc2ccccc2C(=O)NCC(=O)c2ccccc2)CC1 [Example 160, 2-((1-acryloylpiperidin-4-yl)oxy)-N-(2-oxo-2-phenylethyl)benz amide] | 1.05 | 1.067
O=C(CNC(=O)C1CCC1)c1ccccc1 [Example 17, N-(2-oxo-2-phenylethyl)cyclobutanecarboxamide] | 0.98 | 0.9288
O=C(CNC(=O)c1ccccc1OC1CCN(C(=O)c2ccc(F)cc2F)CC1)c1ccccc1 [Example 177, 2-((1-(2,4-difluorobenzoyl)piperidin-4-yl)oxy)-N-(2-oxo-2-phenylethyl)benzamide] | 0.95 | 1.159
CCN(CC)Cc1cccc(C(=O)NCC(=O)c2ccccc2)c1 [Example 247, 3-((diethylamino)methyl)-N-(2-oxo-2-phenylethyl)benzamide] | 1.27 | 1.124
O=C(CNC(=O)c1cccc(CN2CCOCC2)c1)c1ccccc1 [Example 252, 3-(morpholinomethyl)-N-(2-oxo-2-phenylethyl)benzamide] | 1.56 | 1.165
O=C(CNC(=O)c1ccccc1OC1CCN(C(=O)CCc2ccccc2)CC1)c1ccccc1 [Example 159, N-(2-oxo-2-phenylethyl)-2-((1-(3-phenylpropanoyl)piperidin-4-yl)oxy)benzamide] | 0.99 | 1.059
